ChEMBL document CHEMBL1201862, “PubChem BioAssay data set” (2004)
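Five compound concentrations were applied to cells in 96-well plates for 48 hours; endpoints were derived by simple linear interpolation of the resulting dose-response curve. At the GI50, growth is halved.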 The source made the active and inactive calls. No stated cut-off is given here; in the data, active = GI50 up to about 1.1 µM and inactive = higher.

Experiments:
Assay in all cases: DTP human tumour cell line panel, 48 h
[1] = tested on: OVCAR-8
[2] = tested on: SR
[3] = tested on: SNB-19
[4] = tested on: SK-OV-3
[5] = tested on: SF-539
[6] = tested on: COLO 205
[7] = tested on: LOX IMVI
[8] = tested on: SK-MEL-28
[9] = tested on: A549
[10] = tested on: UO-31
[11] = tested on: NCI-H23
[12] = tested on: RPMI-8226
[13] = tested on: MDA-N
[14] = tested on: HL-60
[15] = tested on: SW-620
[16] = tested on: BT-549

Structure (SMILES) | GI50 [1] | GI50 [2] | GI50 [3] | GI50 [4] | GI50 [5] | GI50 [6] | GI50 [7] | GI50 [8] | GI50 [9] | GI50 [10] | GI50 [11] | GI50 [12] | GI50 [13] | GI50 [14] | GI50 [15] | GI50 [16]
CC(=O)O[C@H]1C(=O)N(c2cc3c4ccccc4ccc3c3ccccc23)[C@@H]1c1ccccc1 | 3.97 µM (inactive) | 1.6 µM (inactive) | 6.79 µM (inactive) | 4.74 µM (inactive) | 3.89 µM (inactive) | 4.24 µM (inactive) | 4.34 µM (inactive) | 10.4 µM (inactive) | 4.56 µM (inactive) | 11.2 µM (inactive) | 5.51 µM (inactive) | 2.23 µM (inactive) | 3.86 µM (inactive) |  |  | 
CC1(C)C(=O)N(O)C(C)(C)N1N=O | > 10 µM (inactive) | > 10 µM (inactive) | > 10 µM (inactive) |  |  | > 10 µM (inactive) |  |  | > 10 µM (inactive) | > 10 µM (inactive) | > 10 µM (inactive) | 1.89 µM (inactive) |  | > 10 µM (inactive) | > 10 µM (inactive) | > 10 µM (inactive)
COc1cc2c(/C=C3/C(=O)N(C)c4ccc(O)cc43)c(Cl)[nH]c2cc1C | 0.597 µM (active) | 0.133 µM (active) | 0.456 µM (active) | 0.326 µM (active) | 0.248 µM (active) | 0.414 µM (active) | 0.594 µM (active) | 2.22 µM (inactive) | 0.667 µM (active) | 1.64 µM (inactive) | 0.329 µM (active) | 0.35 µM (active) |  | 0.281 µM (active) | 0.361 µM (active) | 0.811 µM (active)
Cc1nc2ccc(F)cc2c(Cl)c1CCCl | 49.3 µM (inactive) | 19.9 µM (inactive) | 36.4 µM (inactive) |  | 67.3 µM (inactive) | 20 µM (inactive) | 25.2 µM (inactive) | 40.3 µM (inactive) | 42.3 µM (inactive) | 73.1 µM (inactive) | 42.3 µM (inactive) | 42.8 µM (inactive) |  | 16.1 µM (inactive) | 39.5 µM (inactive) | 36.9 µM (inactive)
CC(C)(C)OC(=O)NC(Cc1ccccc1)C(=O)OCN1C(=O)C2C3C=CC(C2C1=O)C1C2C(=O)N(COC(=O)C(Cc4ccccc4)NC(=O)OC(C)(C)C)C(=O)C2C31 (centres undefined) | 30.1 µM (inactive) | 0.176 µM (active) | 34.3 µM (inactive) | 37.2 µM (inactive) | 42.4 µM (inactive) | 8.22 µM (inactive) | 36.9 µM (inactive) | 34.6 µM (inactive) | 8.28 µM (inactive) | 19.5 µM (inactive) | 38.8 µM (inactive) | 18.8 µM (inactive) |  | 30.7 µM (inactive) | 26.3 µM (inactive) | 18.6 µM (inactive)
O=C(CC(C(=O)c1ccoc1)c1ccco1)c1ccco1 (centres undefined) | > 100 µM (inactive) | 85.7 µM (inactive) |  | > 100 µM (inactive) | > 100 µM (inactive) | > 100 µM (inactive) | > 100 µM (inactive) | 37.9 µM (inactive) | 79.6 µM (inactive) | 65.9 µM (inactive) | 98.4 µM (inactive) | > 100 µM (inactive) | 29.4 µM (inactive) | > 100 µM (inactive) | > 100 µM (inactive) | 
COC(=O)[C@@H]1[C@@H](c2cccc(Cl)c2)[C@H](C(=O)OC)C2(C[C@@]1(C)O)NCCS2 (some centres undefined) | 86.5 µM (inactive) |  | 83.9 µM (inactive) | > 100 µM (inactive) | > 100 µM (inactive) | 81.1 µM (inactive) | 38.2 µM (inactive) | 77.4 µM (inactive) | 55 µM (inactive) | > 100 µM (inactive) | 22.3 µM (inactive) |  | 86.1 µM (inactive) |  | 36.6 µM (inactive) | > 100 µM (inactive)
OCCOCn1nncc1Cn1ncc2c(O)ncnc21 | > 100 µM (inactive) |  | > 100 µM (inactive) | 71.6 µM (inactive) | > 100 µM (inactive) | 97.7 µM (inactive) | 74.3 µM (inactive) | > 100 µM (inactive) | 97.9 µM (inactive) | > 100 µM (inactive) | > 100 µM (inactive) |  |  | 23.9 µM (inactive) | 31.8 µM (inactive) | > 100 µM (inactive)
O=[N+]([O-])c1ccc(C2NC(=S)NC3c4cc([N+](=O)[O-])ccc4CCCC23)cc1 (centres undefined) | 52.2 µM (inactive) | > 100 µM (inactive) | 40.9 µM (inactive) | > 100 µM (inactive) | 39.1 µM (inactive) | > 100 µM (inactive) | > 100 µM (inactive) | > 100 µM (inactive) | 78.3 µM (inactive) | 63.8 µM (inactive) | 67.3 µM (inactive) | 58.9 µM (inactive) |  | > 100 µM (inactive) | > 100 µM (inactive) | 38.8 µM (inactive)
CSC12c3cc(C)n(-c4ccccc4)c3CC(C)(C)CN1C(=O)C2Oc1ccccc1 (centres undefined) | 97.3 µM (inactive) | 11.3 µM (inactive) | > 100 µM (inactive) |  | > 100 µM (inactive) | 30.5 µM (inactive) | 17.5 µM (inactive) | 62.7 µM (inactive) | 11.7 µM (inactive) | 25.7 µM (inactive) | 27.9 µM (inactive) | 7.08 µM (inactive) |  |  | 40.1 µM (inactive) | 85.7 µM (inactive)
CCOC(=O)CCC(NC(=O)c1ccc(N2CCN(c3c(C)nc(N)nc3N)CC2)cc1)C(=O)OCC (centres undefined) | 0.452 µM (active) |  | 0.514 µM (active) | > 100 µM (inactive) | 16.2 µM (inactive) | > 64.1 µM (inactive) | 0.513 µM (active) | > 31.6 µM (inactive) | 0.213 µM (active) | > 100 µM (inactive) | 0.169 µM (active) | 1.76 µM (inactive) | 12.9 µM (inactive) |  |  | > 100 µM (inactive)
Cc1ccc(C(C2C(=O)N(C)C(=O)N(C)C2=O)C(F)(F)C(=O)N(C)C)cc1 (centres undefined) | > 100 µM (inactive) |  | > 100 µM (inactive) | > 100 µM (inactive) | 45.3 µM (inactive) | > 100 µM (inactive) | > 100 µM (inactive) | > 100 µM (inactive) | > 100 µM (inactive) | > 100 µM (inactive) | > 100 µM (inactive) | > 100 µM (inactive) |  |  | > 100 µM (inactive) | > 100 µM (inactive)
CSCCC(NCc1c(O)ccc2ccc(=O)oc12)C(=O)O (centres undefined) | > 100 µM (inactive) | > 100 µM (inactive) | > 100 µM (inactive) | > 100 µM (inactive) | > 100 µM (inactive) | > 100 µM (inactive) | > 100 µM (inactive) | > 100 µM (inactive) | > 100 µM (inactive) | > 100 µM (inactive) | > 100 µM (inactive) | > 100 µM (inactive) | > 100 µM (inactive) | > 100 µM (inactive) | > 100 µM (inactive) | 
CC[C@H](C)[C@H]1NC(=O)[C@@H](NC(=O)[C@@H](CC(C)C)N(C)C(=O)C2CCCN2C(=O)[C@H](C)O)[C@@H](C)OC(=O)[C@@H]2Cc3ccccc3CN2C(=O)[C@@H]2CCCN2C(=O)[C@H](CC(C)C)NC(=O)[C@@H](C)C(=O)[C@H](C(C)C)OC(=O)C[C@@H]1O (some centres undefined) | 1.1 µM (active) | 0.0811 µM (active) | 0.207 µM (active) | 0.547 µM (active) | 0.267 µM (active) | 0.269 µM (active) | 0.361 µM (active) | 0.231 µM (active) | 0.434 µM (active) |  |  | 0.399 µM (active) | 0.388 µM (active) |  | 0.555 µM (active) | 
